The values below come from US7173063B1, “Topoisomerase poisons for the treatment of proliferative disorders” (Fred Hutchinson Cancer Research Center, priority 2000, dated 2007).

In the assay the target is T1, Topo II (Saccharomyces cerevisiae, UniProt P06786).
T1 construct: Strains are wild-type (wt) or constitutively overexpressing Topo II (TOP2oe); endogenous in cells; host or cells: S. cerevisiae A364a background, chromosomal TOP2 with its promoter replaced by the GPD promoter (TOP2oe)
T1 sequence (P06786 1-1428): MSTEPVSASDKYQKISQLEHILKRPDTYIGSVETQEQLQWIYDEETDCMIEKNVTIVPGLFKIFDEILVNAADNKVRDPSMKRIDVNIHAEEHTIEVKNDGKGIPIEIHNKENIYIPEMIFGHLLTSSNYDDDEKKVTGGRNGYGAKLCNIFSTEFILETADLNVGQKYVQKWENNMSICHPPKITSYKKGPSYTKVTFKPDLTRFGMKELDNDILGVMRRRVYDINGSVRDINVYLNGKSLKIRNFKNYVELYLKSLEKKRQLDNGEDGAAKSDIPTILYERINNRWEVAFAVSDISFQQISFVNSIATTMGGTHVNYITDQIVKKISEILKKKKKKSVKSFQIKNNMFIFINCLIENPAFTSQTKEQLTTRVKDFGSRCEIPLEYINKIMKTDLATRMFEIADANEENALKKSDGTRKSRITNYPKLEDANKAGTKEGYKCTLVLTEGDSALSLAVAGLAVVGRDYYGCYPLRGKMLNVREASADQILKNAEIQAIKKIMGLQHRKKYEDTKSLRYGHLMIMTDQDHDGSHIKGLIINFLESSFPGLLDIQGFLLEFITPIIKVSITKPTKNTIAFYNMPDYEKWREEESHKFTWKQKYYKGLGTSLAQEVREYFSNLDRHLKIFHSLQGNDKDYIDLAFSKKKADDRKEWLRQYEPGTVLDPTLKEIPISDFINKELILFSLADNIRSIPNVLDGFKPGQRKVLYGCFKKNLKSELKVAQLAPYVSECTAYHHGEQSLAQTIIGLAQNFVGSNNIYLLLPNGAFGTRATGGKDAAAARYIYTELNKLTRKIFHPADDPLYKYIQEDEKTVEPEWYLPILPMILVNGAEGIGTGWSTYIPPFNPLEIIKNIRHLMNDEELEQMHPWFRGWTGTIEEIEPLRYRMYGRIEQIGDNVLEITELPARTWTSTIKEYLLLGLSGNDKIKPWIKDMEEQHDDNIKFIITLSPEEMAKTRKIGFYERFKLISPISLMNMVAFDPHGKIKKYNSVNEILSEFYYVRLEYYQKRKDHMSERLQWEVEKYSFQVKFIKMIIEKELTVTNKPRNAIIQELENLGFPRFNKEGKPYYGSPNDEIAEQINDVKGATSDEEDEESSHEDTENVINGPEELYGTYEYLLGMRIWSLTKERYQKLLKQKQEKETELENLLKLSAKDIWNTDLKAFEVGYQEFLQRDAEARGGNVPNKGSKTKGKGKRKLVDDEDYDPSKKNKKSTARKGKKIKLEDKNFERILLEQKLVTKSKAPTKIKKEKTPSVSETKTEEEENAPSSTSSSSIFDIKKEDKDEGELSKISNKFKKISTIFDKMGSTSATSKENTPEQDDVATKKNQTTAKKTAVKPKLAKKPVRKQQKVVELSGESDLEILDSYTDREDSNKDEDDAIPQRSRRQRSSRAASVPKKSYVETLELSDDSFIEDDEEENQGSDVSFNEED
Put plainly: Yeast toxicity in strain overexpressing Topo II (TOP2oe). It counts as cell-based. As to conditions: TOP2oe vs wild-type strain. From the text: The strains are derived from the A364a genetic background, with the exception of BY4705, which is derived from the S288C background. Gene disruptions were generated by PCR fragment directed replacement (Baudin, et al., Nucleic Acids Research 21: 3329–30 (1993), Guldener, et al., Nucleic Acids Research 24: 2519–24 (1996)). Yeast overexpressing topoisomerase II was constructed by a PCR fragment directed promoter replacement of the topoisomerase II promoter with the yeast GPD promoter flanked upstream by the URA3 marker. All strains (except BY4705) bear the pleitropic drug sensitizing mutations erg6, pdr1, and pdr3 (Balzi, et al., Journal of Bioenergetics & Biomembranes 27: 71–6 (1995), Delaveau, et al, Molecular & General Genetics 244: 501–11 (1994), Gaber, et al., Molecular & Cellular Biology 9: 3447–56 (1989), Saunders, et al., Canadian Journal of Genetics & Cytology, 24: 493–503 (1982). Subik, et al, Current Genetics 10: 665–70 (1986)). The haploid yeast strain BY4705 (Brachmann, et al., Yeast 14: 115–32 (1998)) was used in the experiments described in FIG. 5. Plasmids expressing yeast or human topoisomerase I genes under the GAL promoter (Knab, et al., Journal of Biological Chemistry 268: 22322–30 (1993). Knab, et al., Journal of Biological Chemistry 270: 6141–8 (1995)) were transformed into BY4705 using standard procedures.
Yeast toxicity assays were performed essentially as follows: Exponentially growing cultures of the appropriate strains were diluted in synthetic complete media to a concentration of 7.4×10^4 cells/mL, and aliquots (135 μL) were transferred to each well of clear flat-bottomed 96 well plates. Compounds were added in duplicate or triplicate as 15 μL of the appropriate dilution in 5% DMSO. A 15 μL portion of 5% DMSO was added to control wells. Assay plates were incubated at 30° C. for approximately seven generations growth in solvent control wells (as monitored by OD660, typically 21–24 hours), then the OD660 of the cultures was measured in a microplate reader (Bio-Tek). […]
On to `CC(=O)[C@]1(O)Cc2c(O)c3c(c(O)c2[C@@H](O[C@H]2C[C@H](N)[C@H](O)[C@H](C)O2)C1)C(=O)c1ccccc1C3=O` [idarubicin, reference compound], for which the “effect of overexpression of Topo II on toxicity” value (shortened to “effect”) was “large increase”. Regarding `O=C(CCl)Nc1ccc(C(=O)N/N=C/c2ccc(Cl)cc2)cc1` [compound Ia], the “effect” value is listed as “Neither compound shows a large increase in toxicity”.

With `O=c1c(Cl)c(Cl)cnn1CCCl` [compound IIa], the “effect” value is “Neither compound shows a large increase in toxicity”.
